This is an account of results in paper PMC3133734 (Journal of medicinal chemistry, 2011).

Marks after values point to notes of the source that are not given here. Where only a bound is given, the exact number is not on record here.

In data set [1] the test system is HIV-1 virus strain RF in CEM-SS cells. The experiment in a line: HIV-1 cytopathicity assay. Type of data set: cell-based. The conditions noted are these: HIV-1RF. For orientation: Cytopathic effects are the visible damage that an infection or toxin causes in cultured cells.
In data set [2] the target is RNase H-deficient p66^EQ/p51 HIV-1 RT (Human immunodeficiency virus type 1 group M subtype B, UniProt P04585, E1065Q). The experiment in a line: DNA-dependent DNA polymerase assay, RNase H mutant p66^E478Q/p51. Type of data set: biochemical. The conditions noted are these: inhibitor 20 µM.
In data set [3] the target is RNase H-deficient p66^DA/p51 HIV-1 RT (Human immunodeficiency virus type 1 group M subtype B, UniProt P04585, D1136A). The experiment in a line: DNA-dependent DNA polymerase assay, RNase H mutant p66^D549A/p51. Type of data set: biochemical. Conditions: inhibitor 20 µM.

Regarding “2,7-dihydroxy-4-isopropyl-cyclohepta-2,4,6-triene [β-Thujaplicinol, reference compound]”, the “protection against the cytopathic effect of HIV (in words)” value (“protection against the cytopathic effect” below) in data set [1] is given as “no protection against the cytopathic effect of HIV”.
In the case of `Cc1cc(O)c(=O)c(O)c2c1C[C@@H](C(C)(O)CN1CCCCC1)CC2` (mixture of isomers) [Compound 1, 5,7-Dihydroxy-2-(1-hydroxy-1-methyl-2-piperidin-1-yl-ethyl)-9-methyl-1,2,3,4-tetrahydro benzocyclohepten-6-one], in data set [1], the “In vitro therapeutic index (CC50/EC50)” value came out at 4.9 and the “protection against the cytopathic effect” value was “protection against the cytopathicity of the virus”.
For the compound `Cc1cc(O)c(=O)c(O)c2c1C[C@@H](C(C)(O)Cn1ccnc1)CC2` (mixture of isomers) [Compound 2, 5,7-Dihydroxy-2-(1-hydroxy-2-imadazol-1-yl-1-methyl-ethyl)-9-methyl-1,2,3,4-tetrahydro benzocyclohepten-6-one], in data set [1], the “protection against the cytopathic effect” value is reported as “protection against the cytopathicity of the virus”.
Regarding `CCN(CC)CC(C)(O)[C@H]1CCc2c(c(C)cc(O)c(=O)c2O)C1` (mixture of isomers) [Compound 3, 2-(2-Diethylamino-1-hydroxy-1-methyl-ethyl)-5,7-dihydroxy-9-methyl-1,2,3,4-tetrahydrobenzocyclohepten-6-one], the “protection against the cytopathic effect” value in data set [1] is “slight protection against cytopathicity”. In addition, the “Viral Replication EC50 column, protective effect class” value in data set [1] (highest concentration 50 µM) was less than 50% ^c.
Take `Cc1cc(O)c(=O)c(O)c2c1C[C@@H](C(C)(O)CNCc1ccccc1F)CC2` (mixture of isomers) [Compound 4, 2-[2-(2-Fluoro-benzylamino)-1-hydroxy-1-methyl-ethyl]-5,7-dihydroxy-9-methyl-1,2,3,4-tetrahydrobenzocyclohepten-6-one]: the “protection against the cytopathic effect” value in data set [1] was “no protection against virus cytopathicity”.
`Cc1cc(O)c(=O)c(O)c2c1C[C@@H](C(C)(O)CNc1ccccc1)CC2` (mixture of isomers) [Compound 5, 5,7-Dihydroxy-2-(1-hydroxy-1-methyl-2-phenylamino-ethyl)-9-methyl-1,2,3,4-tetrahydrobenzocyclohepten-6-one]: the “inhibition of DNA-dependent DNA polymerase activity (in words)” value in data set [2] was “significantly and consistently inhibited”; in data set [3], “significantly and consistently inhibited”. For the same compound, the “protection against the cytopathic effect” value in data set [1] was “protection against the cytopathicity of the virus”.
With `CCSCC(C)(O)[C@H]1CCc2c(c(C)cc(O)c(=O)c2O)C1` (mixture of isomers) [Compound 6, 2-(2-Ethylsulfanyl-1-hydroxy-1-methyl-ethyl)-5,7-dihydroxy-9-methyl-1,2,3,4-tetrahydrobenzocyclohepten-6-one], the “protection against the cytopathic effect” value in data set [1] is “slight protection against cytopathicity”.
On to `Cc1cc(O)c(=O)c(O)c2c1C[C@@H](C(C)(O)CSc1ccccc1)CC2` (mixture of isomers) [Compound 7, 5,7-Dihydroxy-2-(1-hydroxy-1-methyl-2-phenylsulfanyl-ethyl)-9-methyl-1,2,3,4-tetrahydrobenzocyclohepten-6-one], for which the “protection against the cytopathic effect” value in data set [1] is recorded as “protection against the cytopathicity of the virus”.
Consider `Cc1cc(O)c(=O)c(O)c2c1C[C@@H](C(C)(O)CSCc1ccccc1)CC2` (mixture of isomers) [Compound 8, 2-(2-Benzylsulfanyl-1-hydroxy-1-methyl-ethyl)-5,7-dihydroxy-9-methyl-1,2,3,4-tetrahydrobenzocyclohepten-6-one], for which, in data set [1], the “protection against the cytopathic effect” value was “protection against the cytopathicity of the virus”.
As to `CCS(=O)(=O)CC(C)(O)[C@H]1CCc2c(c(C)cc(O)c(=O)c2O)C1` (mixture of isomers) [Compound 9, 2-(2-Ethanesulfonyl-1-hydroxy-1-methyl-ethyl)-5,7-dihydroxy-9-methyl-1,2,3,4-tetrahydrobenzocyclohepten-6-one], the “protection against the cytopathic effect” value in data set [1] is recorded as “slight protection against cytopathicity”.
Take `Cc1cc(O)c(=O)c(O)c2c1C[C@@H](C(C)O)CC2` (mixture of isomers) [Compound 13, 5,7-Dihydroxy-2-(1-hydroxy-ethyl)-9-methyl-1,2,3,4-tetrahydrobenzocyclohepten-6-one]: the “protection against the cytopathic effect” value in data set [1] was “protection against the cytopathicity of the virus”.
As for `Cc1cc(O)c(=O)c(O)c2c1C[C@@H](C(C)NCc1ccccc1)CC2` (mixture of isomers) [Compound 14, 2-(1-Benzylamino-ethyl)-5,7-Dihydroxy-9-methyl-1,2,3,4-tetrahydrobenzocyclohepten-6-one], the “protection against the cytopathic effect” value in data set [1] is on record as “protection against the cytopathicity of the virus”.
The same measure, in the same setting: for `Cc1cc(O)c(=O)c(O)c2c1CC(C(C)(O)CO)CC2` (stereo not drawn) [Compound 12, 2-(1,2-Dihydroxy-1-methyl-ethyl)-5,7-dihydroxy-9-methyl-1,2,3,4-tetrahydrobenzocyclohepten-6-one] the value was “no protection against virus cytopathicity”; for `C=C(C)[C@H]1CCc2c(c(C)cc(O)c(=O)c2O)C1` [Manicol, 5,7-dihydroxy-2-isopropenyl-9-methyl-1,2,3,4-tetrahydro-benzocyclohepten-6-one, reference compound], “no protection against the cytopathic effect of HIV”.
